Assay results: patent publication US8883782B2, “Spiro-tetracyclic ring compounds as beta-secretase modulators and methods of use” (Amgen Inc., priority 2010, dated 2014)

How the values were obtained:
[1] = test system: Aβ40 in conditioned medium of cells stably expressing Amyloid Precursor Protein (APP); test: In vitro BACE cell-based assay (Aβ40 in conditioned medium, sandwich ELISA); settings: Homo sapiens, HEK293, average IC50; read-out: HEK cell assay
Procedure, shortened: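 The sandwich ELISA pairs pAb40 capture (3 h, 4 °C) with 6E10 detection (2 h, 4 °C) and a streptavidin-europium TRF read-out. Supernatants come from APP-expressing cells grown in 10% FBS DMEM.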

[2] = target: Beta Secretase enzyme (BACE) (Homo sapiens, UniProt P56817); test: In vitro enzymatic BACE FRET (fluorescence resonance energy transfer) assay; format: biochemical; settings: average IC50, enzyme assay; read-out: BACE 1 FRET assay
Beta Secretase enzyme (BACE), sequence (P56817 46-501, species assumed): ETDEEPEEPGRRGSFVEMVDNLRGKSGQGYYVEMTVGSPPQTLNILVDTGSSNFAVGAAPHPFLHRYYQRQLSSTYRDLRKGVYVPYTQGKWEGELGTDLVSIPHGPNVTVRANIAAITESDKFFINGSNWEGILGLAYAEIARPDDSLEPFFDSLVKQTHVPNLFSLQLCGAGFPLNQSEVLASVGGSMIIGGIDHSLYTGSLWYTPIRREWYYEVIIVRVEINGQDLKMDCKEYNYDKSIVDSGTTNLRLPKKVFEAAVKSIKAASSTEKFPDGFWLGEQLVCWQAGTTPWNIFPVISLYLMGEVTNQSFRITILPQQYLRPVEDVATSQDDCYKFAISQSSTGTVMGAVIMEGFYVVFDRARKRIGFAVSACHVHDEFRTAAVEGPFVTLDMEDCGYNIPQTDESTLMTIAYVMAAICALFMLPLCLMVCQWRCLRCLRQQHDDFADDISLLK
Procedure, shortened: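 Acetate buffer (0.05 M, pH 4.2), 10% DMSO final, 100 uM nonionic detergent genapol. Substrate addition (50 nM FRET peptide) initiates; one-hour incubation; Tris raises pH to neutrality before fluorescence measurement.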

Compound | IC50 [1] | IC50 [2]
NC1=N[C@@]2(CO1)c1cc(-c3cccnc3F)ccc1Oc1ncc([C@@H]3CCCOC3)cc12 [Example 174, (5S)-7-(2-fluoro-3-pyridinyl)-3-((3S)-tetrahydro-2H-pyran-3-yl)spiro[chromeno[2,3-b]pyridine-5,4′-[1,3]oxazol]-2′-amine] | 40 nM | 12.1 nM
CC1(/C=C/c2cnc3c(c2)[C@]2(COC(N)=N2)c2cc(-c4cccnc4F)ccc2O3)COC1 [Example 175, (5S)-7-(2-fluoro-3-pyridinyl)-3-((E)-2-(3-methyl-3-oxetanyl)ethenyl)spiro[chromeno[2,3-b]pyridine-5,4′-[1,3]oxazol]-2′-amine] | 1 nM | 0.5 nM
CC1(/C=C/c2cnc3c(c2)[C@]2(COC(N)=N2)c2cc(-c4ccc(F)nc4)ccc2O3)COC1 [Example 176, (5S)-7-(6-fluoro-3-pyridinyl)-3-((E)-2-(3-methyl-3-oxetanyl)ethenyl)spiro[chromeno[2,3-b]pyridine-5,4′-[1,3]oxazol]-2′-amine] | 3.2 nM | 1.2 nM
CC1(/C=C/c2cnc3c(c2)[C@]2(COC(N)=N2)c2cc(-c4cc(Cl)ccc4F)ccc2O3)COC1 [Example 177, (5S)-7-(5-chloro-2-fluorophenyl)-3-((E)-2-(3-methyl-3-oxetanyl)ethenyl)spiro[chromeno[2,3-b]pyridine-5,4′-[1,3]oxazol]-2′-amine] | 1.8 nM | 0.4 nM
NC1=N[C@@]2(CO1)c1cc(C#CC3CC3)ccc1Oc1ncc(N3CCC(F)(F)C3)cc12 [Example 178, (5S)-7-(cyclopropylethynyl)-3-(3,3-difluoro-1-pyrrolidinyl)spiro[chromeno[2,3-b]pyridine-5,4′-[1,3]oxazol]-2′-amine] | 14.3 nM | 3.1 nM
CC1(C)CN(c2cnc3c(c2)[C@]2(COC(N)=N2)c2cc(C#CC4CC4)ccc2O3)CCO1 [Example 179, (5S)-7-(cyclopropylethynyl)-3-(2,2-dimethyl-4-morpholinyl)spiro[chromeno[2,3-b]pyridine-5,4′-[1,3]oxazol]-2′-amine] | 64.1 nM | 11.1 nM
Cn1ccc(-c2cnc3c(c2)[C@]2(COC(N)=N2)c2cc(C#CC(C)(C)C)ccc2O3)n1 [Example 180, (5S)-7-(3,3-dimethyl-1-butyn-1-yl)-3-(1-methyl-1H-pyrazol-3-yl)spiro[chromeno[2,3-b]pyridine-5,4′-[1,3]oxazol]-2′-amine] | 165 nM | 49.5 nM
NC1=N[C@@]2(CO1)c1cc(C#CC3CC3)ccc1Oc1ncc(N3CCC(F)(F)CC3)cc12 [Example 181, (5S)-7-(cyclopropylethynyl)-3-(4,4-difluoro-1-piperidinyl)spiro[chromeno[2,3-b]pyridine-5,4′-[1,3]oxazol]-2′-amine] | 27.1 nM | 5.7 nM
CC1(C)CCN(c2cnc3c(c2)[C@]2(COC(N)=N2)c2cc(C#CC4CC4)ccc2O3)C1 [Example 182, (5S)-7-(cyclopropylethynyl)-3-(3,3-dimethyl-1-pyrrolidinyl)spiro[chromeno[2,3-b]pyridine-5,4′-[1,3]oxazol]-2′-amine] | 22 nM | 3.1 nM
Cn1ccc(-c2cnc3c(c2)[C@]2(COC(N)=N2)c2cc(C#CC4CC4)ccc2O3)n1 [Example 183, (5S)-7-(cyclopropylethynyl)-3-(1-methyl-1H-pyrazol-3-yl)spiro[chromeno[2,3-b]pyridine-5,4′-[1,3]oxazol]-2′-amine] | 189 nM | 51.5 nM
CC(C)CSc1cnc2c(c1)[C@]1(COC(N)=N1)c1cc(-c3cccnc3)ccc1O2 [Example 184, (5S)-3-((2-methylpropyl)sulfanyl)-7-(3-pyridinyl)spiro[chromeno[2,3-b]pyridine-5,4′-[1,3]oxazol]-2′-amine] | 294 nM | 14.1 nM
COc1ccc2c(c1)[C@@]1(COC(N)=N1)c1cc(SCc3ccccc3)cnc1O2 [Example 185, (5S)-3-(benzylsulfanyl)-7-methoxyspiro[chromeno[2,3-b]pyridine-5,4′-[1,3]oxazol]-2′-amine] | 10000 nM | 5060 nM
CC1(C#Cc2cnc3c(c2)[C@]2(COC(N)=N2)c2cc(-c4cncc(Cl)c4)ccc2O3)COC1 [Example 186, (5S)-7-(5-chloro-3-pyridinyl)-3-((3-methyl-3-oxetanyl)ethynyl)spiro[chromeno[2,3-b]pyridine-5,4′-[1,3]oxazol]-2′-amine] | 3 nM | 0.5 nM
CC1(C#Cc2cnc3c(c2)[C@]2(COC(N)=N2)c2cc(-c4cncc(C(F)(F)F)c4)ccc2O3)COC1 [Example 187, (5S)-3-((3-methyl-3-oxetanyl)ethynyl)-7-(5-(trifluoromethyl)-3-pyridinyl)spiro[chromeno[2,3-b]pyridine-5,4′-[1,3]oxazol]-2′-amine] | 11.6 nM | 2.9 nM
CC1(C#Cc2cnc3c(c2)[C@]2(COC(N)=N2)c2cc(-c4ccc(F)c(F)c4)ccc2O3)COC1 [Example 188, (5S)-7-(3,4-difluorophenyl)-3-((3-methyl-3-oxetanyl)ethynyl)spiro[chromeno[2,3-b]pyridine-5,4′-[1,3]oxazol]-2′-amine] | 86.6 nM | 4.5 nM
N#Cc1cncc(-c2ccc3c(c2)[C@@]2(COC(N)=N2)c2cc(C4=CCOCC4)ccc2O3)c1 [Example 190, 5-((4R)-2-amino-7′-(3,6-dihydro-2H-pyran-4-yl)spiro[1,3-oxazole-4,9′-xanthen]-2′-yl)-3-pyridinecarbonitrile] | 23.1 nM | 10.3 nM
NC1=N[C@]2(CO1)c1cc(C3=CCOCC3)ccc1Oc1ccc(-c3cnccn3)cc12 [Example 192, (4R)-2′-(3,6-dihydro-2H-pyran-4-yl)-7′-(2-pyrazinyl)spiro[1,3-oxazole-4,9′-xanthen]-2-amine] | 35 nM | 13.1 nM
N#Cc1cccc(-c2ccc3c(c2)[C@@]2(COC(N)=N2)c2cc(C4=CCOCC4)ccc2O3)c1 [Example 195, 3-((4R)-2-amino-7′-(3,6-dihydro-2H-pyran-4-yl)spiro[1,3-oxazole-4,9′-xanthen]-2′-yl)benzonitrile] | 63.1 nM | 9.4 nM

More lines, now with the values ahead:

IC50 [1] | IC50 [2] | Compound
5 nM | 0.6 nM | NC1=N[C@@]2(CO1)c1cc(-c3cccc(Cl)c3)ccc1Oc1ncc(C3=CCCOC3)cc12 [Example 173, (5S)-7-(3-chlorophenyl)-3-(5,6-dihydro-2H-pyran-3-yl)spiro[chromeno[2,3-b]pyridine-5,4′-[1,3]oxazol]-2′-amine]
7.8 nM | 0.8 nM | NC1=N[C@@]2(CO1)c1cc(-c3cccnc3F)ccc1Oc1c(F)cc(N3CCC4(CC3)COC4)cc12 [Example 189, (4S)-4′-fluoro-7′-(2-fluoro-3-pyridinyl)-2′-(2-oxa-7-azaspiro[3.5]non-7-yl)spiro[1,3-oxazole-4,9′-xanthen]-2-amine]
35.6 nM | 5.6 nM | Cc1cnc(F)c(-c2ccc3c(c2)[C@@]2(COC(N)=N2)c2cc(C4=CCOCC4)ccc2O3)c1 [Example 191, (4R)-2′-(3,6-dihydro-2H-pyran-4-yl)-7′-(2-fluoro-5-methyl-3-pyridinyl)spiro[1,3-oxazole-4,9′-xanthen]-2-amine]
18 nM | 7.5 nM | NC1=N[C@]2(CO1)c1cc(C3=CCOCC3)ccc1Oc1ccc(-c3cncc(F)c3)cc12 [Example 193, (4R)-2′-(3,6-dihydro-2H-pyran-4-yl)-7′-(5-fluoro-3-pyridinyl)spiro[1,3-oxazole-4,9′-xanthen]-2-amine]
27.4 nM | 8 nM | COc1cncc(-c2ccc3c(c2)[C@@]2(COC(N)=N2)c2cc(C4=CCOCC4)ccc2O3)c1 [Example 194, (4R)-2′-(3,6-dihydro-2H-pyran-4-yl)-7′-(5-methoxy-3-pyridinyl)spiro[1,3-oxazole-4,9′-xanthen]-2-amine]
680 nM | 36.8 nM | COc1cccc(Nc2ccc3c(c2)[C@@]2(COC(N)=N2)c2cc(C4=CCOCC4)cc(F)c2O3)c1 [Example 197, (4S)-7′-(3,6-dihydro-2H-pyran-4-yl)-5′-fluoro-N~2~′-(3-methoxyphenyl)spiro[1,3-oxazole-4,9′-xanthene]-2,2′-diamine]
572 nM | 77.9 nM | COc1cccc(Nc2ccc3c(c2)[C@@]2(COC(N)=N2)c2cc(N4CCOCC4)cc(F)c2O3)c1 [Example 198, (4S)-5′-fluoro-N~2~′-(3-methoxyphenyl)-7′-(4-morpholinyl)spiro[1,3-oxazole-4,9′-xanthene]-2,2′-diamine]
5.1 nM | 0.8 nM | CC(C)(O)C#Cc1cc(F)c2c(c1)[C@]1(COC(N)=N1)c1cc(-c3cccnc3F)ccc1O2 [Example 199, 4-((4S)-2-amino-4′-fluoro-7′-(2-fluoro-3-pyridinyl)spiro[1,3-oxazole-4,9′-xanthen]-2′-yl)-2-methyl-3-butyn-2-ol]
8.5 nM | 0.6 nM | Cc1cc(-c2cc(F)c3c(c2)[C@]2(COC(N)=N2)c2cc(-c4cccnc4F)ccc2O3)cc(=O)o1 [Example 200, 4-((4S)-2-amino-4′-fluoro-7′-(2-fluoro-3-pyridinyl)spiro[1,3-oxazole-4,9′-xanthen]-2′-yl)-6-methyl-2H-pyran-2-one]
7.6 nM | 1.8 nM | NC1=N[C@@]2(CO1)c1cc(-c3cccnc3F)ccc1Oc1c(F)cc(-c3cccnn3)cc12 [Example 201, (4S)-4′-fluoro-7′-(2-fluoro-3-pyridinyl)-2′-(3-pyridazinyl)spiro[1,3-oxazole-4,9′-xanthen]-2-amine]
11.8 nM | 4.9 nM | NC1=N[C@@]2(CO1)c1cc(-c3ccc(F)nc3)ccc1Oc1c(F)cc(N3CCOCC3)cc12 [Example 202, (4S)-4′-fluoro-7′-(6-fluoro-3-pyridinyl)-2′-(4-morpholinyl)spiro[1,3-oxazole-4,9′-xanthen]-2-amine]
